SMILES strings stand for the structures.

The assay deals with T1, VEGFR2 (KDR) (Homo sapiens, UniProt P35968).
T1 construct: made in house; host or cells: Sf9 cells (Spodoptera frugiperda), baculovirus (Bac-to-Bac)
T1 sequence (P35968 806-1356): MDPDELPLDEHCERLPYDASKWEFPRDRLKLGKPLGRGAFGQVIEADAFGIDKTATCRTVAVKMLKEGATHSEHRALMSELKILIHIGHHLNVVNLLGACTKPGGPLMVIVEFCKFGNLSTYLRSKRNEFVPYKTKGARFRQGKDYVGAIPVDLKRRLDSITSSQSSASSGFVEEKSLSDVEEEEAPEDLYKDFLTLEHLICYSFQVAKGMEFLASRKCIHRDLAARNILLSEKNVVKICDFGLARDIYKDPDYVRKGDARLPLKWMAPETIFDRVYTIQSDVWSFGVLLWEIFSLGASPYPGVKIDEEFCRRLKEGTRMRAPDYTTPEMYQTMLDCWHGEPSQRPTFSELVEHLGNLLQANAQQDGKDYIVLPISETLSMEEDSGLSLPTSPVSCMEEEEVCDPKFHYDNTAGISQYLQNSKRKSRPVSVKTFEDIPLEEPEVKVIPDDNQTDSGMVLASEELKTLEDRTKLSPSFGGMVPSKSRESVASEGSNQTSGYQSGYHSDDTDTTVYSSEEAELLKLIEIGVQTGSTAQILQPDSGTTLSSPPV
Kind of assay: In Vitro Receptor Tyrosine Kinase Assay (VEGF Receptor KDR). The note with it: recombinant GST-VEGFR2 806-1356, DELFIA assay, ATP 0.6 uM, enzyme 5 nM; read-out: VEGFR_IC50_UM. It is filed as biochemical. An excerpt:
In Vitro Receptor Tyrosine Kinase Assay (VEGF Receptor KDR)
This test measures the ability of compounds to inhibit the enzymatic activity of recombinant human VEGF receptor enzymatic activity.
A 1.6-kb cDNA corresponding to the catalytic domain of VEGFR2 (KDR) (Genbank accession number AF035121 amino acid 806 to 1356) is cloned into the Pst I site of the pDEST20 Gateway vector (Invitrogen) for the production of a GST-tagged version of that enzyme. This construct is used to generate recombinant baculovirus using the Bac-to-Bac™ system according to the manufacturer's instructions (Invitrogen).
The GST-VEGFR2806-1356 protein is expressed in Sf9 cells (Spodoptera frugiperda) upon infection with recombinant baculovirus construct. Briefly, Sf9 cells grown in suspension and maintained in serum-free medium (Sf900 II supplemented with gentamycin) at a cell density of about 2×10^6 cells/ml are infected with the above-mentioned viruses at a multiplicity of infection (MOI) of 0.1 during 72 hours at 27° C. with agitation at 120 rpm on a rotary shaker. Infected cells are harvested by centrifugation at 398 g for 15 min. Cell pellets are frozen at […] until purification is performed.
All steps described in cell extraction and purification are performed at 4° C. Frozen Sf9 cell pellets infected with the GST-VEGFR2806-1356 recombinant baculovirus are thawed and gently resuspended in Buffer A (PBS pH 7.3 supplemented with 1 μg/ml pepstatin, 2 μg/ml Aprotinin and leupeptin, 50 μg/ml PMSF, 50 μg/ml TLCK and 10 μM E64 and 0.5 mM DTT) using 3 ml of buffer per gram of cells. Suspension is Dounce homogenized and 1% Triton X-100 is added to the homogenate after which it is centrifuged at 22500 g, 30 min., 4° C. The supernatant (cell extract) is used as starting material for purification of GST-VEGFR2806-1356.
The supernatant is loaded onto a GST-agarose column (Sigma) equilibrated with PBS pH 7.3. Following a four column volume (CV) wash with PBS pH 7.3+1% Triton X-100 and 4 CV wash with buffer B (50 mM Tris pH 8.0, 20% glycerol and 100 mM NaCl), bound proteins are step eluted with 5 CV of buffer B supplemented with 5 mM DTT and 15 mM glutathion. GST-VEGFR2806-1356 enriched fractions from this chromatography step are pooled based on U.V. trace i.e. fractions with high O.D.280. Final GST-VEGFR2806-1356 protein preparations concentrations are about 0.7 mg/ml with purity approximating 70%. Purified GST-VEGFR2806-1356 protein stocks are aliquoted and frozen at −80° C. prior to use in enzymatic assay.
Inhibition of VEGFR/KDR is measured in a DELFIA™ assay (Perkin Elmer). The substrate poly(Glu4,Tyr) is immobilized onto black high-binding polystyrene 96-well plates. The coated plates are washed and stored at 4° C. During the assay, the enzyme is pre-incubated with inhibitor and Mg-ATP on ice in polypropylene 96-well plates for 4 minutes, and then transferred to the coated plates. The subsequent kinase reaction takes place at 30° C. for 10-minutes. ATP concentrations in the assay are 0.6 uM for VEGFR/KDR (2× the Km). Enzyme concentration is 5 nM. After incubation, the kinase reactions are quenched with EDTA and the plates are washed. Phosphorylated product is detected by incubation with Europium-labeled anti-phosphotyrosine MoAb. After washing the plates, bound MoAb is detected by time-resolved fluorescence in a Gemini SpectraMax reader (Molecular Devices). Compounds are evaluated over a range of concentrations, and IC50 values (concentration of compounds giving 50% inhibition of enzymatic activity) are determined.
Take `CC(=O)N1CC(NC(=O)Nc2ccc(Oc3ccnc4cc(-c5ccc(CN6CC(NC(=O)OC(C)(C)C)C6)cn5)sc34)c(F)c2)C1` [Compound 46-A]: the IC50 turned out to be 0.137 µM.
As for `CC(=O)N1CC(NC(=O)Nc2ccc(Oc3ccnc4cc(-c5ccc(CN6CC(N)C6)cn5)sc34)c(F)c2)C1` [Compound 46], the figure is 0.13 µM.
With `COCCN(Cc1ccc(-c2cc3nccc(Oc4ccc(NC(=O)NC5COC5)c(F)c4F)c3s2)nc1)C(C)=O` [Compound 109], the IC50 was 0.011 µM.
Consider `Cc1ccc(S(=O)(=O)N2CC(NC(=O)Nc3ccc(Oc4ccnc5cc(-c6ccc(CN7CCN(C)CC7)cn6)sc45)c(F)c3)C2)cc1` [Compound 55], for which the IC50 stood at 0.01 µM.
As for `CN1CCN(Cc2ccc(-c3cc4nccc(Oc5ccc(NC(=O)NC6CN(S(C)(=O)=O)C6)cc5F)c4s3)nc2)CC1` [Compound 54], the IC50 was determined as 0.036 µM.
With `COCCN(Cc1ccc(-c2cc3nccc(Oc4ccc(NC(=O)NC5COC5)cc4F)c3s2)nc1)C(C)=O` [Compound 106], the IC50 was determined as 0.012 µM.
For `CC(C)(C)OC(=O)N1CC(NC(=O)Nc2ccc(Oc3ccnc4cc(-c5ccc(CN6CCOC6=O)cn5)sc34)c(F)c2)C1` [Compound 111], the IC50 was determined as 0.059 µM.
With `CC(=O)N1CC(NC(=O)Nc2ccc(Oc3ccnc4cc(-c5ccc(CN6CCN(C(=O)CO)CC6)cn5)sc34)c(F)c2)C1` [Compound 47-A], the IC50 came out at 0.068 µM.
As for `CN1CCN(Cc2ccc(-c3cc4nccc(Oc5ccc(NC(=O)NC6CN(C(=O)Cc7ccccc7)C6)cc5F)c4s3)nc2)CC1` [Compound 53], the IC50 turned out to be 0.058 µM.
In the case of `CC(=O)N1CC(NC(=O)Nc2ccc(Oc3ccnc4cc(-c5ccc(CN6CCC(NC(=O)CO)CC6)cn5)sc34)c(F)c2)C1` [Compound 43, N-(1-((6-(7-(4-(3-(1-Acetylazetidin-3-yl)ureido)-2-fluorophenox)thieno[3,2-b]pyridin-2-yl)pyridin-3-yl)methyl)piperidin-4-yl)-2-hydroxyacetamide], the IC50 worked out at 0.061 µM.
For the compound `COCCN(Cc1ccc(-c2cc3nccc(Oc4ccc(NC(=O)NC5CN(C(=O)OC(C)(C)C)C5)cc4F)c3s2)nc1)C(=O)OC(C)(C)C` [Compound 67, tert-Butyl 3-(3-(4-(2-(5-((tert-butoxycarbonyl(2-methoxyethyl)amino)methyl)pyridin-2-yl)thieno[3,2-b]pyridin-7-yloxy)-3-fluorophenyl)ureido)azetidine-1-carboxylate], the IC50 turned out to be 0.057 µM.
For the compound `CC(C)(C)OC(=O)N1CC(NC(=O)Nc2ccc(Oc3ccnc4cc(-c5ccc(CN6CCCC6=O)cn5)sc34)c(F)c2)C1` [Compound 110], the IC50 came to 0.017 µM.
As for `CC(=O)N1CC(NC(=O)Nc2ccc(Oc3ccnc4cc(-c5ccc(CN6CCC(N)CC6)cn5)sc34)c(F)c2)C1` [Compound 41, 1-(1-Acetylazetidin-3-yl)-3-(4-(2-(5-((4-aminopiperidin-1-yl)methyl)pyridin-2-yl)thieno[3,2-b]pyridin-7-yloxy)-3-fluorophenyl)urea], the figure is 0.078 µM; as for `CC(=O)N1CC(NC(=O)Nc2ccc(Oc3ccnc4cc(-c5ccc(CN6CCC(N(C)C(=O)CO)CC6)cn5)sc34)c(F)c2)C1` [Compound 47], 0.032 µM; as for `CN1CCN(Cc2ccc(-c3cc4nccc(Oc5ccc(NC(=O)NC6CN(C(=O)OC(C)(C)C)C6)cc5F)c4s3)nc2)CC1` [Compound 50, tert-Butyl 3-(3-(3-fluoro-4-(2-(5-((4-methylpiperazin-1-yl)methyl)pyridin-2-yl)thieno[3,2-b]pyridin-7-yloxy)phenyl)ureido)azetidine-1-carboxylate], 0.035 µM.
As for `O=C(Nc1ccc(Oc2ccnc3cc(-c4ccc(CN5CCCC5=O)cn4)sc23)c(F)c1)NC1COC1` [Compound 93, 1-(3-Fluoro-4-(2-(5-((2-oxopyrrolidin-1-yl)methyl)pyridin-2-yl)thieno[3,2-b]pyridin-7-yloxy)phenyl)-3-(oxetan-3-yl)urea], the figure is 0.009 µM.
As for `O=C(Nc1ccc(Oc2ccnc3cc(-c4ccc(CN5CCN(C(=O)CO)CC5)cn4)sc23)c(F)c1)NC1COC1` [Compound 88, 1-(3-Fluoro-4-(2-(5-((4-(2-hydroxyacetyl)piperazin-1-yl)methyl)pyridin-2-yl)thieno[3,2-b]pyridin-7-yloxy)phenyl)-3-(oxetan-3-yl)urea], the IC50 is 0.042 µM.
Take `COCCN(Cc1ccc(-c2cc3nccc(Oc4ccc(Nc5nc6cc(Cl)ccc6[nH]5)cc4F)c3s2)nc1)C(=O)CO` [Compound 65, N-((6-(7-(4-(5-Chloro-1H-benzo[d]imidazol-2-ylamino)-2-fluorophenoxy)thieno[3,2-b]pyridin-2-yl)pyridin-3-yl)methyl)-2-hydroxy-N-(2-methoxyethyl)acetamide]: the IC50 was determined as 0.023 µM.
On to `CC(=O)N1CC(NC(=O)Nc2ccc(Oc3ccnc4cc(-c5ccc(CN6CC(NC(=O)CO)C6)cn5)sc34)c(F)c2)C1` [Compound 48], for which the IC50 was 0.062 µM.
As for `CCNC(=O)NC1CCN(Cc2ccc(-c3cc4nccc(Oc5ccc(NC(=O)NC6CN(C(C)=O)C6)cc5F)c4s3)nc2)CC1` [Compound 44], the figure is 0.157 µM; as for `COCCN(Cc1ccc(-c2cc3nccc(Oc4ccc(NC(=O)NC5COC5)cc4F)c3s2)nc1)C(=O)OC(C)(C)C` [Compound 104], 0.197 µM.
On to `CN(C)[C@H]1CCN(C(=O)c2cc3nccc(Oc4ccc(NC(=O)NC5COC5)cc4F)c3s2)C1` [Compound 107], for which the IC50 amounted to 0.056 µM.
On to `CN1CCN(Cc2ccc(-c3cc4nccc(Oc5ccc(NC(=O)NC6CN(C)C6)cc5F)c4s3)nc2)CC1` [Compound 19, 1-(3-Fluoro-4-(2-(5-((4-methylpiperazin-1-yl)methyl)pyridin-2-yl)thieno[3,2-b]pyridin-7-yloxy)phenyl)-3-(1-methylazetidin-3-yl)urea], for which the IC50 amounted to 0.975 µM.
Take `CC(=O)N1CC(NC(=O)Nc2ccc(Oc3ccnc4cc(-c5ccc(CN6CCOC6=O)cn5)sc34)c(F)c2)C1` [Compound 113, 1-(1-Acetylazetidin-3-yl)-3-(3-fluoro-4-(2-(5-((2-oxooxazolidin-3-yl)methyl)pyridin-2-yl)thieno[3,2-b]pyridin-7-yloxy)phenyl)urea]: the IC50 turned out to be 0.095 µM.
As to `CCOC(=O)C1CCCN(Cc2ccc(-c3cc4nccc(Oc5ccc(NC(=O)NC6COC6)cc5F)c4s3)nc2)C1` (stereo not shown) [Compound 73, Ethyl 1-((6-(7-(2-fluoro-4-(3-oxetan-3-ylureido)phenoxy)thieno[3,2-b]pyridin-2-yl)pyridin-3-yl)methyl)piperidine-3-carboxylate], the IC50 was found to be 0.523 µM.
In the case of `CC(=O)N1CC(NC(=O)Nc2ccc(Oc3ccnc4cc(-c5ccc(CN6CCC(NC(=O)OC(C)(C)C)CC6)cn5)sc34)c(F)c2)C1` [Compound 40, tert-Butyl 1-((6-(7-(4-(3-(1-acetylazetidin-3-yl)ureido)-2-fluorophenoxy)thieno[3,2-b]pyridin-2-yl)pyridin-3-yl)methyl)piperidin-4-ylcarbamate], the IC50 is 0.28 µM.
Take `O=C(CO)N1CCN(Cc2ccc(-c3cc4nccc(Oc5ccc(Nc6nc7cc(Cl)ccc7[nH]6)cc5F)c4s3)nc2)CC1` [Compound 61, 1-(4-((6-(7-(4-(5-Chloro-1H-benzo[d]imidazol-2-ylamino)-2-fluorophenoxy)thieno[3,2-b]pyridin-2-yl)pyridin-3-yl)methyl)piperazin-1-yl)-2-hydroxyethanone]: the IC50 was found to be 0.056 µM.
Consider `CCNC(=O)N(CCOC)Cc1ccc(-c2cc3nccc(Oc4ccc(NC(=O)NC5CN(C(=O)NCC)C5)cc4F)c3s2)nc1` [Compound 69, N-Ethyl-3-(3-(4-(2-(5-((3-ethyl-1-(2-methoxyethyl)ureido)methyl)pyridin-2-yl)thieno[3,2-b]pyridin-7-yloxy)-3-fluorophenyl)ureido)azetidine-1-carboxamide], for which the IC50 was 0.584 µM.

(Values after US20130090327A1, “Inhibitors of Protein Tyrosine Kinase Activity” (METHYLGENE INC., priority 2011, published 2013).)
